Reference: patent US6670378B2, “Method of treating Parkinson's disease” (Pharmacia & Upjohn Company, priority 2001, dated 2003)

Legend:
[1] = Plasma/blood levels of the piperidine derivative and its N-dealkylated metabolite after two weeks of chronic dosing (HPLC-MS/MS); assay type: in vivo, Male Sprague-Dawley rats; settings: plasma one hour after evening dose
Experimental: In order to perform the brain monoamine neurochemistry analysis, the brains were harvested following 14 days of chronic drug treatment. This was performed by decapitating the rats one hour after the evening drug administration, collecting the trunk blood into EDTA-treated tubes, immediately removing the brains, freezing the brains in small aluminum pans on dry ice and then storing at −80° C. […] Blood was spun and plasma was frozen at −80° C. for analysis of S-(−)-3-[3-(methylsulfonyl) phenyl]-1-propyl-piperidine and its major N-dealkylated metabolite. Plasma concentrations of S-(−)-3-[3-(methylsulfonyl)phenyl]-1-propyl-piperidine and its despropyl metabolite were quantitated using on-line high performance liquid chromatography (HPLC) tandem mass spectroscopy (MS/MS) with an atmospheric pressure chemical ionization (APCI) interface. […] S-(−)-3-[3-(methylsulfonyl)phenyl]-1-propyl-piperidine (0.1 μg/mL, 25 μL) were quantitatively added to 100 μL of plasma sample. […] The linear range of the calibration curve calculated in plasma was 0.02 nmol/mL to 40 nmol/mL for S-(−)-3-[3-(methylsulfonyl) phenyl]-1-propyl-piperidine and 00.01 nmol/mL to 20 nmol/mL for its N-dealkylated metabolite. […] Product ions with m/z 173 were monitored following CID of the protonated stable isotope (m/z 286). […] Study sample concentrations were calculated by reference to this equation.

[2] = test system: 6-OH-dopamine lesioned rats; assay: L-DOPA induced behavioral sensitization (contralateral rotations) in unilaterally 6-OH-dopamine lesioned rats; assay type: in vivo, Male Sprague-Dawley rats
Experimental: Repeated administration of dopamine agonists to 6-OH-dopamine lesioned rats results in behavioral sensitization or enhanced rotational behavior in the rats. This effect is believed to mirror the development of motor complications including L-DOPA induced involuntary movements such as dyskinesias in Parkinson's Disease patients.
Male Sprague-Dawley rats having lesion surgery were provided. […] The rats were anesthetized with 60 mg/kg i.p. sodium pentobarbital and then placed in a stereotaxic apparatus. A small hole was drilled through the skull of the rats and a 30-gauge stainless tubing was lowered to the right (one study) or left (two studies) medial forebrain bundle. 8 μg/4 μL (8μ free base) of 6-OH-dopamine solution was injected into the medial forebrain bundle at a rate of 1 μL/min. Following surgery, the incision was closed with clips and ointment containing a local anesthetic/antibiotic was applied to the incision area. The rats were returned to their home cages and allowed one week to recover from surgery.
The rats were group housed in wire mesh hanging cages with free access to food and water and kept on 12-hour light:12-hour dark cycles with the light being on from 6:00 a.m. to 6:00 p.m. All behavioral testing was done between 9:00 a.m. to 6:00 p.m.
Two to three weeks after the surgery, the rats were screened to assess the degree of lesion by measuring their net turning response to a single dose of 0.1 mg/kg s.c. of apomorphine HCl in 0.9% saline. The total turns were recorded in discrete 10 minute intervals. Each rat was connected by a lightweight harness and tether to a rotometer comprising a swivel with a mechanical counter at the top of a clear plastic cylindrical cage. The rats were used for the experiments if they had at least 30 contralateral turns in 10 minutes, with contralateral being away from the side of the lesion. In addition to screening out incomplete lesions, the response to apomorphine was used to separate the rats into balanced treatment groups, prior to the start of chronic dosing. The rats were ranked by cumulative net turning response and an equal number of high and low responders were placed in each treatment group.
All of the injections were given in a volume of 2 ml/kg and, with the exception of L-DOPA+benserazide 15+5 mg/kg, i.p., all injections were subcutaneous. All chronic treatment was given bid, 6-8 hours apart. […] S-(−)-3-[3-(methylsulfonyl)phenyl]-1-propyl-piperidine was dissolved in 0.9% sterile saline and administered at either 10 or 30 mg/kg subcutaneously 20 minutes before L-DOPA or together with the L-DOPA. The basal turning measurement started immediately after the rats received the first injections on day 1 with the activity being measured for 4-6 hours after dosing. The turning activity was measured again on days 7 and 14 and compared to the activity on day 1. […] Analysis of variance was used for statistical calculations and probability levels of <0.05 was regarded as being statistically significant.

[3] = test system: unilaterally dopamine-lesioned monkeys; settings: cited from earlier work
[4] = Post mortem brain (prefrontal cortex) levels of L-DOPA after 14 days of chronic treatment; settings: L-DOPA alone vs L-DOPA combined with the piperidine derivative
Experimental: In order to perform the brain monoamine neurochemistry analysis, the brains were harvested following 14 days of chronic drug treatment. This was performed by decapitating the rats one hour after the evening drug administration, collecting the trunk blood into EDTA-treated tubes, immediately removing the brains, freezing the brains in small aluminum pans on dry ice and then storing at −80° C. Brain levels of L-DOPA and dopamine were analyzed by means of liquid chromatography and electrochemical detection according to standard methodology described in the literature.
After two weeks of the administering of the L-DOPA and benserazide, tissues were taken post-mortem from the unilateral striatum and prefrontal cortex and analyzed for monoamines and their metabolite levels.

[5] = test system: rotational behavior induced by apomorphine, L-DOPA and quinpirole; settings: in vivo; cited from earlier work

Row | Structure (SMILES) | effect of chronic treatment with L-DOPA on blood levels [1] | rotational behavior in animals with unilateral lesions of the nigro-striatal dopamine neurons ([2]; L-DOPA+benserazide 15+5 mg/kg i.p.) | behavioral sensitization, measured as enhanced number of contralateral rotations ([2]; L-DOPA+benserazide 15+5 mg/kg i.p. bid, two separate experiments) | L-DOPA-induced contraversive turning behavior [3] | effect of co-treatment on brain levels of L-DOPA [4] | motor impairment such as akinesia or dystonia [5] | rotational behavior induced by apomorphine, L-DOPA and quinpirole [5] | behavioral sensitization induced by L-DOPA (enhanced number of contralateral rotations) ([2]; 10 or 30 mg/kg s.c. bid, 20 minutes before or together with L-DOPA+benserazide 15+5 mg/kg i.p., days 7 and 14 vs day 1) | antagonism of basal rotational response induced by L-DOPA ([2]; 10 or 30 mg/kg s.c. with L-DOPA+benserazide 15+5 mg/kg i.p., both experiments) | rotational behavior or akinesia induced by the compound by itself ([2]; compound alone, s.c.) | time course of antagonism of L-DOPA sensitization (simultaneous vs 20 minutes before L-DOPA) ([2]; given simultaneously with L-DOPA (FIG. 2) vs 20 minutes before (FIG. 1))
1 | CS(=O)(=O)c1cccc([C@@H]2CCCNC2)c1 [N-dealkylated metabolite] | did not significantly effect | – | – | – | – | – | – | – | – | – | –
2 | N[C@@H](Cc1ccc(O)c(O)c1)C(=O)O [L-DOPA, reference compound] | – | induces rotational behavior | repeatedly exhibited | – | – | – | – | – | – | – | –
3 | CCCN1CCC[C@@H](c2cccc(S(C)(=O)=O)c2)C1 [S-(−)-3-[3-(methylsulfonyl)phenyl]-1-propyl-piperidine] | did not significantly effect | – | – | attenuating | did not appear to effect the brain levels of L-DOPA | without inducing motor impairment | attenuated | blocked by both doses | in neither experiment did the piperidine derivative antagonize the basal rotational response | did not induce rotational behavior or akinesia by itself | most optimal antagonism occurred when the piperidine derivative was given simultaneously with L-DOPA
